Results as given in US20180271930A1, “METHOD FOR RAISING POULTRY” (priority 2015, published 2018).

What was measured:
myogenin = experiment: Examination 1: myogenin gene expression in superficial pectoral muscle (real-time PCR, relative to RPS9); assay type: in vivo, broiler chicks of the Chunky breed (Ross 308); conditions: 3 days old, GSSG addition group (0.01% or 0.1% feed), FIG. 1B, n=6
Description: FIGS. 1A to 1D illustrate graphs showing the expression of genes related to skeletal muscle cell differentiation in superficial pectoral muscles upon administration of each feed composition in Examination 1 (n=6). […] A relative value of the expression level of each factor is expressed as an average±standard deviation of values obtained by dividing the expression levels of each factor by the expression level of RPS9. Each different symbol denotes a significant difference in the […] multiple comparison test (P<0.05). Newly hatched broiler chicks of the Chunky breed (Ross 308, Ross Breeders Ltd.) were tested. […] Real-time PCR was performed by adding cDNA, a primer set, and other necessary reagents to wells of a 96-well PCR plate, preheating the plate using a thermal cycler at 95° C. for 3 minutes, followed by 35 cycles of steps of denaturation, annealing, and elongation in a repetitive manner, and measurement of […] after the elongation step for each cycle. The expression level of each gene was designated as a relative value obtained by dividing the determined amount of an amplification product of IGF-I, myostatin, MyoD, or myogenin by the amount of an amplification product of RPS9. […] The amount of GSSG used herein was determined in terms of the amount of free oxidized glutathione. […]

[1] = Examination 2-2: breeding performance at 40 days old after GSSG prestarter feed; assay type: in vivo, broiler chicks (Ross 308); conditions: 0.01% by mass GSSG feed for first 72 h, n = 12
Procedure: Thereafter, the composition was replaced by an ordinary feed composition of the same type and the chicks were raised until they became 40 days old. […] Two groups, which were a control group and a GSSG addition group (0.01% by mass) were set. In each group, 6 males and 6 females were tested. Chicks received at 0 day old were fed with a test feed composition (initial-phase feed composition) during 72 hours after the receipt. […] The body weight was measured, and the meat yield and feed conversion ratio were determined. As the initial-phase feed composition, the 0.01% by mass GSSG-containing feed composition used in Examination 1 was used in the GSSG addition group, and the feed composition (ME3,100 kcal/kg, CP21) free of GSSG used in Examination 1 was used for the control group. […] An ammonium salt was used as oxidized glutathione (GSSG). The GSSG contained 95.6% by mass of oxidized glutathione, and the content of reduced glutathione mixed therein was 0.1% by mass or less. […] The term “meat yield” refers to a proportion of meat excluding bones and fats with respect to the body weight. The meat yield can be determining by performing slaughtering and butchering, collecting meat alone, and weighing the collected meat.

Pax7 = experiment: Examination 3: Pax7 expression in skeletal muscle cells in differentiation medium; assay type: cell-based, broiler chicks (Ross 308); conditions: 100 μM GSSG in differentiation medium; 12 hours after start of culture; FIG. 2D, n=6
Description: FIGS. 2A to 2D illustrate graphs showing the expression levels of genes related to skeletal muscle cell differentiation upon the addition of GSSG during the skeletal muscle cell differentiation period in Examination 3 (n=6). […] A relative value of the expression level of each factor is expressed as an average±standard deviation of values obtained by dividing the expression levels of each factor by the expression level of RPS9. Each different symbol denotes a significant difference in the […] multiple comparison test (P<0.05). Oxidized glutathione (GSSG) was added to a differentiation-promoting culture medium system of skeletal muscle cells collected from newly hatched broiler chicks (Ross 308, Ross Breeders Ltd.) (under culture conditions simulating the state of skeletal muscle cells of neonatal chicks), phosphorylation of signal factors was analyzed by Western blot, and the differentiation inhibition mechanism was investigated. Expression levels of MyoD, myostatin, IGF-I, and Pax7 as genes involved in myogenesis were determined. Pax7 is a muscle satellite cell marker. […] The expression level of Pax7 was determined by the method described in Examination 1 except that the primer set used herein was a primer set listed in the table below. […] The cells were recovered 0, 12, and 24 hours later, and the expression levels of genes involved in myogenesis were determined. […]

For oxidized glutathione [GSSG], the “myogenin expression level vs control group” value (myogenin) was “significant decreases”, the Meat yield ([1]; 40 days old) was 42.1 ± 1.1 % by mass and the Weight ([1]; 40 days old) was 2214 ± 79 g. The “Feed conversion ratio (mass ratio)” value ([1]; until 40 days old) was 1.52 ± 0.09 and the “expression of Pax7 vs control group” value (Pax7) was “significantly increased”.
